Measurements reported in PubChem BioAssay (NCI).
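Following 48 hours of exposure in 96-well plates, responses at five concentrations were used to interpolate endpoints linearly. Here, GI50 denotes the concentration required for 50% inhibition of growth. Definition used: TGI = concentration required for complete inhibition of growth.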

Key:
Assay in all cases: inhibition of tumour cell growth, NCI panel, 48 h
OVCAR-4 ovarian = system: OVCAR-4 ovarian
SF-268 CNS = system: SF-268 CNS
PC-3 prostate = system: PC-3 prostate
NCI-H522 lung = system: NCI-H522 lung
LOX IMVI melanoma = system: LOX IMVI melanoma
T-47D breast = system: T-47D breast
BT-549 breast = system: BT-549 breast
SK-MEL-2 melanoma = system: SK-MEL-2 melanoma
COLO 205 colon = system: COLO 205 colon
NCI-H226 lung = system: NCI-H226 lung

SMILES	GI50 (OVCAR-4 ovarian)	TGI (OVCAR-4 ovarian)	GI50 (SF-268 CNS)	TGI (SF-268 CNS)	GI50 (PC-3 prostate)	TGI (PC-3 prostate)	GI50 (NCI-H522 lung)	GI50 (LOX IMVI melanoma)	TGI (LOX IMVI melanoma)	GI50 (T-47D breast)	TGI (T-47D breast)	GI50 (BT-549 breast)	TGI (BT-549 breast)	GI50 (SK-MEL-2 melanoma)	TGI (SK-MEL-2 melanoma)	GI50 (COLO 205 colon)	TGI (COLO 205 colon)	GI50 (NCI-H226 lung)	TGI (NCI-H226 lung)	TGI (NCI-H522 lung)
COC(=O)Nc1nc2ccc(C(=O)c3ccc(F)cc3)cc2[nH]1	1.21 µM	> 100 µM	0.644 µM	7.65 µM	0.226 µM	> 100 µM	0.311 µM	0.762 µM	> 100 µM	0.338 µM	> 100 µM	2.44 µM	> 100 µM	4.14 µM	> 49.8 µM	0.152 µM	0.554 µM	0.464 µM	3.23 µM	–
Cc1cc(C)nc(NS(=O)(=O)c2ccc(NC(=O)COC(=O)c3cccc4c(=O)c5ccccc5[nH]c34)cc2)n1	–	> 100 µM	–	> 100 µM	–	–	–	–	40.7 µM	–	–	–	–	–	–	–	> 100 µM	–	> 100 µM	70.9 µM
CCN(CC)CC(O)c1cc(-c2ccc(Cl)cc2)nc2c(C)c(Cl)ccc12 (centres undefined)	1.9 µM	3.35 µM	1.61 µM	3.05 µM	1.6 µM	2.97 µM	1.85 µM	1.41 µM	2.77 µM	1.59 µM	3.12 µM	2.27 µM	4.49 µM	2.1 µM	3.61 µM	1.77 µM	3.35 µM	1.65 µM	3.18 µM	3.29 µM
C=C(Br)COc1ccc2c(C)cc(=O)oc2c1	–	> 100 µM	–	> 100 µM	–	> 100 µM	–	–	> 100 µM	–	87.2 µM	–	> 100 µM	–	> 100 µM	–	16.7 µM	–	> 100 µM	> 100 µM
Fc1ccc(N=C2C=CC(=Nc3ccc(F)cc3)c3ccccc32)cc1	–	–	–	> 100 µM	–	–	–	–	> 100 µM	–	–	–	–	–	> 100 µM	–	> 100 µM	–	> 100 µM	> 100 µM
C[C@]12CC[C@H]3[C@@H](CC[C@]4(O)C[C@@H](O[C@@H]5O[C@H](CO)[C@@H](O[C@@H]6OC[C@@H](O)[C@H](O)[C@H]6O)[C@H](O)[C@H]5O)CC[C@]34C=O)[C@@]1(O)CC[C@@H]2C1=CC(=O)OC1	0.91 µM	2.8 µM	0.739 µM	2.42 µM	0.78 µM	3.57 µM	0.237 µM	1.46 µM	5.09 µM	1.55 µM	7.77 µM	1.06 µM	5.2 µM	1.49 µM	4.44 µM	1.98 µM	7.24 µM	1.47 µM	3.69 µM	1.51 µM
CCCCCCCCCCCCCCCCCC[S+](C)CC (centres undefined)	1.65 µM	4.35 µM	1.18 µM	2.88 µM	–	–	–	–	–	2.36 µM	18.8 µM	–	–	–	–	1.42 µM	2.81 µM	2.08 µM	7.58 µM	–
Cc1ccc(NC(=O)CC2SC(=Nc3ccc(Cl)cc3)NC2=O)cc1C (centres undefined)	–	35.6 µM	–	33.4 µM	–	–	–	–	33.7 µM	–	–	–	–	–	17.9 µM	–	32.4 µM	–	> 64.3 µM	18.4 µM
COc1ccc(/C=C/C(=O)/C=C(O)/C=C/c2ccc(OC)c(OC)c2)cc1OC	27.6 µM	> 100 µM	4.77 µM	> 100 µM	2.88 µM	> 100 µM	2.52 µM	2.54 µM	17.9 µM	76.9 µM	> 100 µM	–	–	13.8 µM	63.1 µM	34.4 µM	> 100 µM	3.59 µM	> 100 µM	7.53 µM
COc1cc(C)[nH]c(=O)c1CNC(=O)c1c(C)n([C@H](C)C2CCN(CC(F)(F)F)CC2)c2ccccc12	41.7 µM	> 100 µM	80.6 µM	> 100 µM	47.4 µM	> 100 µM	80.3 µM	41.6 µM	> 100 µM	25.9 µM	> 100 µM	33.6 µM	> 100 µM	47.3 µM	> 100 µM	–	–	34.4 µM	> 100 µM	> 100 µM
COc1cc(CC(=O)O)c([N+](=O)[O-])cc1OC	–	> 100 µM	–	> 100 µM	–	–	–	–	> 100 µM	–	–	–	–	–	> 100 µM	–	> 100 µM	–	> 100 µM	> 100 µM
CCn1ncc(N=O)c1N	–	–	–	> 100 µM	–	> 100 µM	–	–	> 100 µM	–	> 100 µM	–	–	–	> 100 µM	–	> 100 µM	–	–	> 100 µM
O=C(CC1(O)C(=O)Nc2ccccc21)c1ccccc1O (centres undefined)	–	> 100 µM	–	> 100 µM	–	–	–	–	> 100 µM	–	–	–	–	–	> 100 µM	–	> 100 µM	–	> 100 µM	> 100 µM
Cc1cc(C)c(/C=N/NS(=O)(=O)c2ccccc2)c(C)c1	–	> 100 µM	–	> 100 µM	–	–	–	–	> 100 µM	–	–	–	–	–	> 100 µM	–	> 100 µM	–	> 100 µM	–
CC(=O)Nc1ccc(C2=N/C(=C\c3ccc(Cl)cc3)C(=O)O2)cc1	–	> 100 µM	–	90.9 µM	–	–	–	–	35.6 µM	–	–	–	–	–	> 100 µM	–	> 100 µM	–	> 100 µM	63.7 µM
[CH3][Hg]/[N]=C(/N)NC#N	3.23 µM	9.31 µM	16.3 µM	33.3 µM	–	–	1.29 µM	3.29 µM	14.9 µM	–	–	–	–	3.65 µM	26.7 µM	1.71 µM	3.09 µM	15.6 µM	32.5 µM	2.57 µM
COc1ccc2nc3ccccc3c(NCCN(CCCl)CCCl)c2c1	–	3.14 µM	–	5.74 µM	–	–	–	–	–	–	–	–	–	–	–	–	–	–	4.74 µM	1.75 µM
CC/C(=C(/c1ccc(OCCN(C)C)cc1)c1ccc(OC(=O)CCCCCCCCC(=O)c2c(C)[nH]c(/C=C3\N=C(c4ccc[nH]4)C=C3OC)c2C)cc1)c1ccccc1	–	–	6.63 µM	> 100 µM	5.86 µM	> 100 µM	21.2 µM	2.36 µM	5.93 µM	3.56 µM	> 100 µM	5.21 µM	> 100 µM	30.7 µM	> 100 µM	8.2 µM	78 µM	> 100 µM	> 100 µM	> 100 µM
